ChEMBL document CHEMBL1201862, “PubChem BioAssay data set” (2004)
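All cell lines were grown in 96-well plates and treated with compound for 48 hours. GI50 marks 50% less growth.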 Calls of active or inactive are those of the source. No stated cut-off is given here; in the data, active = GI50 up to about 1.1 µM and inactive = higher.

What was measured:
Assay in all cases: NCI anticancer screen, dose series, 48 h
[1] = test system: BT-549
[2] = test system: DLD-1
[3] = test system: DMS-114
[4] = test system: DMS-273
[5] = test system: HOP-18
[6] = test system: KM-20L2
[7] = test system: SNB-78
[8] = test system: XF498
[9] = test system: RXF 631

Row | Compound | GI50 [1] | GI50 [2] | GI50 [3] | GI50 [4] | GI50 [5] | GI50 [6] | GI50 [7] | other results
1 | Nc1c(S(N)(=O)=O)cc(S(N)(=O)=O)cc1S(N)(=O)=O | > 100 µM (inactive) |  |  |  |  |  |  | 
2 | OC(c1ccccc1)(c1ccccc1)c1ccncc1 |  | > 100 µM (inactive) | > 100 µM (inactive) | > 100 µM (inactive) | > 100 µM (inactive) | > 100 µM (inactive) | > 100 µM (inactive) | GI50 [8]: > 100 µM (inactive)
3 | O=P(O)(O)CCP(=O)(O)O | > 100 µM (inactive) |  |  |  |  |  |  | 
4 | Nc1ccccc1C(=O)NC(=O)Nc1ccc(Oc2ncc(Br)cn2)c(Cl)c1 | 2.48 µM (inactive) | < 0.01 µM (active) | < 0.01 µM (active) |  | 13 µM (inactive) | < 0.01 µM (active) | < 0.12 µM (active) | 
5 | CC1(O)/C(=N/O)CC2CC1C2(C)C (stereo not drawn) | > 100 µM (inactive) |  |  |  |  |  |  | 
6 | COc1ccc2c(c1)C(=O)c1ccc(OC)cc1C2=S |  | 55.5 µM (inactive) | > 100 µM (inactive) | > 100 µM (inactive) | > 100 µM (inactive) | > 100 µM (inactive) | 30.7 µM (inactive) | GI50 [8]: 85.3 µM (inactive)
7 | COC(=O)c1csnn1 |  |  | > 100 µM (inactive) | > 100 µM (inactive) |  | > 100 µM (inactive) |  | GI50 [8]: > 100 µM (inactive)
8 | N#Cc1nc(Nc2cccc3ccccc23)sc1N |  | 48.4 µM (inactive) |  | 36.8 µM (inactive) |  | 43.2 µM (inactive) | 13 µM (inactive) | GI50 [8]: 20.3 µM (inactive)
9 | CCOC(=O)CCC(C(=O)OCC)n1nc2ccc(Nc3c(C)[n+]([O-])c4cc(F)c(OCC)cc4[n+]3[O-])cc2n1 (stereo not drawn) | 34 µM (inactive) |  |  |  |  |  |  | 
10 | COc1ccc(CC2c3c(cc(OC)c(OC)c3OC)CCN2C)cc1OC (stereo not drawn) |  | > 100 µM (inactive) |  |  | 51.2 µM (inactive) | > 100 µM (inactive) | 60 µM (inactive) | GI50 [8]: > 100 µM (inactive)
11 | Cc1cc(C)n(CN(Cn2nc(C)cc2C)C2CCCCC2)n1 | 23.3 µM (inactive) |  |  |  |  |  |  | 
12 | CCN(CC)CCn1ncc2ccc3c(c(=O)c4cccnc4n3CCN(CC)CC)c21 | 2.25 µM (inactive) |  |  |  |  |  |  | 
13 | Cc1cc(N(CCC#N)CCC#N)ccc1C(/N=N/c1ccc([N+](=O)[O-])cc1)=N\NC(=O)c1cc(Cl)ccc1C(=O)c1ccccc1 | 19 µM (inactive) |  |  |  |  |  |  | 
14 | COC(=O)c1ccccc1C#CCCCOS(C)(=O)=O | > 10 µM (inactive) |  |  |  |  |  |  | 
15 | CC(=O)NC(CCCNC(=O)NCCCl)C(=O)NCc1ccccc1 (stereo not drawn) |  |  | > 100 µM (inactive) | > 100 µM (inactive) | > 100 µM (inactive) | > 100 µM (inactive) |  | GI50 [9]: > 100 µM (inactive)
16 | O=S(=O)(c1ccccc1)c1ccc(-c2nc(-c3ccc4c(c3)Sc3ccccc3S4)cs2)cc1 | 30.3 µM (inactive) |  |  |  |  |  |  | 
17 | CSc1nc(=O)c(C#N)c(-c2ccccc2)n1C1OC(COC(C)=O)C(OC(C)=O)C(OC(C)=O)C1OC(C)=O (stereo not drawn) | > 100 µM (inactive) |  |  |  |  |  |  | 
18 | O=C(/C=C/c1ccccc1)Nc1ccccc1SCCCCl | 8.11 µM (inactive) |  |  |  |  |  |  | 
19 | CC(NC(=O)C(C)C(=O)Nc1ccc(C(F)(F)F)cc1)C(N)=O (stereo not drawn) | > 100 µM (inactive) |  |  |  |  |  |  | 
20 | O=C(O)c1ccccc1Cc1ccco1 |  | > 100 µM (inactive) | > 100 µM (inactive) | > 100 µM (inactive) | > 100 µM (inactive) | > 100 µM (inactive) | > 100 µM (inactive) | 
21 | CCc1cccc(C)c1NS(=O)(=O)c1ccccc1 |  | > 100 µM (inactive) | > 100 µM (inactive) | > 100 µM (inactive) |  | > 100 µM (inactive) | > 100 µM (inactive) | GI50 [9]: > 100 µM (inactive); GI50 [8]: > 100 µM (inactive)
22 | C/C(=N\NC(C)(C)C)c1sc(-c2nc(C)c(/C(C)=N/NC(C)(C)C)s2)nc1C |  | > 100 µM (inactive) | > 100 µM (inactive) | > 100 µM (inactive) | > 100 µM (inactive) | > 100 µM (inactive) | > 100 µM (inactive) | GI50 [9]: > 100 µM (inactive)
23 | CCOC(=O)COc1c(OC)cc(C2C3=C(COC3=O)Oc3cc4c(cc32)OCO4)cc1OC (stereo not drawn) | 21.9 µM (inactive) |  |  |  |  |  |  | 
24 | CCOP(=O)(OCC)/C(C#N)=C/c1ccc[nH]1 |  | > 100 µM (inactive) | > 100 µM (inactive) | > 100 µM (inactive) | > 100 µM (inactive) | > 100 µM (inactive) | > 100 µM (inactive) | 
25 | FC(F)(F)c1ccc2c(c1)nc(Cc1ccccc1)n2C[C@@H]1CCCN2CCCCC12 (stereo partly drawn) | 14 µM (inactive) |  |  |  |  |  |  | 
26 | O=C1c2ccccc2CC12Cc1ccc3c(c1C2=O)CCCC3 (stereo not drawn) | > 100 µM (inactive) |  |  |  |  |  |  | 
27 | Cc1ccc(SC2C(C)(C)N(C(C)C)P2(=O)N(C(C)C)C(C)C)cc1 (stereo not drawn) |  |  |  | 13.4 µM (inactive) | > 100 µM (inactive) | 34 µM (inactive) | > 68.5 µM (inactive) | 
28 | CN(c1ccccc1)C1C(=O)N(c2ccccc2)C1/C=C/c1ccccc1 (stereo not drawn) |  | > 100 µM (inactive) |  | > 100 µM (inactive) |  |  | > 100 µM (inactive) | 
29 | Br[C@@H]1[C@H]2c3nc4ccccc4nc3[C@@H]1C[C@H]2Br | 65.5 µM (inactive) |  |  |  |  |  |  | 
